Data as given in a melting point compilation (Tetko et al.; mined from patent text by program, amines drawn as free bases though some values may be those of a salt).

Row | SMILES | melting point [°C]
1 | C=CCOc1ccccc1OCC(O)CNC1CCC(N2CCNC2=O)CC1 (stereo unspecified) | 154 to 155
2 | O=CN(O)C(CS(=O)(=O)c1ccc(-c2ccc(C(F)(F)F)cc2)cc1)c1ccc(O)cc1 (stereo unspecified) | 225
3 | Nc1c(-c2ccc(Oc3ccccc3)cc2)nc2ccccc2c1C(=O)O | 218 to 220
4 | CC(C)C(=O)OCCn1nc(-c2cc(C(C)(C)C)c(O)c(C(C)(C)C)c2)c2cccnc21 | 94 to 96
5 | CNC(=O)c1[nH]c2ccccc2c1Sc1ccccc1 | 201 to 204
6 | CCOC(=O)/C=C/c1cnn(C)c1 | 43 to 44
7 | C=CC(=O)OCCCCCCOc1ccc(C(=O)O)cc1 | 139
8 | COc1cncc(-c2cc(=S)ss2)n1 | 149
9 | Cn1nnc(-c2ccc3c(c2)c(C2=CCN(CCc4nnn[nH]4)CC2)cn3-c2ccc(F)cc2)n1 | 131 to 132
10 | Cc1cc(Oc2c(Cl)cc(C(F)(F)F)cc2Cl)nn1C(=O)NCCO | 124 to 126
11 | Cc1ccc(C(=O)NC(=O)Nc2cc3c(cc2F)/C(=C/c2[nH]c(C)c(CCC(=O)O)c2C)C(=O)N3)cc1 | 265 to 270
12 | COC(=O)Cc1ccc(Sc2ccccc2C(=O)O)c([N+](=O)[O-])c1 | 135 to 136
13 | CN(C)Cc1ccc2c(c1)c(C1CCN(CCN3CCNC3=O)CC1)cn2-c1ccc(F)cc1 | 166 to 174
14 | OCCCN1CCC(c2ccccc2)(c2ccccc2)CC1 | 97
15 | Cc1ccc(C(=O)N(C)C)cc1-c1nc(NCCNC(C)C)nc2c1CNC(=O)N2c1c(F)cccc1F | 130 to 133
16 | OC1CSC(Oc2cccc(-c3ncccc3F)c2)C(O)C1O (stereo unspecified) | 150
17 | O=C(O)c1[nH]c2cc(Cl)cc(Cl)c2c1C=C1CC(=O)N(c2ccccc2)C1=O | > 250
18 | O=C(c1ccccc1)c1ccc(-c2nc(COc3cccc(CCCn4ccnc4)c3)co2)cc1 | 97 to 98

Row | SMILES | melting point [°C]
19 | COCCN1CC(=O)C(C#N)=C1C#N | 108 to 110
20 | O=C1C(c2cccc(-c3ccccc3)c2)n2cncc2CN1Cc1ccccc1 (stereo unspecified) | 232 to 234
21 | Cc1cc(O)ccc1-c1c(C=O)sc(-c2ccc(O)c(F)c2)c1C | 227 to 230
22 | CC(C)(C)OC(=O)Nc1cc(CC#N)c(C#Cc2ccccc2)cc1NC(=O)CC(=O)c1cccc(C#N)c1 | 98
23 | CCOCc1nc2c(N)nc3cc(Br)cnc3c2n1CC(C)(C)NC(=O)OC(C)(C)C | 176 to 178
24 | CC1=C(C(=O)OC2CCCC2)C(c2cccc([N+](=O)[O-])c2)C([N+](=O)[O-])=C(C)N1 (stereo unspecified) | 174
25 | C=CCNc1nc(NCC=C)nc(N2CCNCC2)n1 | 93 to 94.5
26 | CCCN(Cc1ccc(-c2ccccc2-c2nnn[nH]2)cc1)c1nc(C)cnc1C(=O)OCC | 172 to 174
27 | CC(=O)c1ccc(Cl)c(S(=O)(=O)Nc2ccccc2)c1 | 142
28 | CSc1ccc2[nH]c(=O)n(CCN3CCC(Nc4nc5ccccc5n4Cc4ccc(F)cc4)CC3)c(=O)c2c1 | 238
29 | O=C(Nc1ccc(CN2C(=O)[C@H]3CCC[C@H]3N(C(=O)CN3C(=O)c4ccccc4C3=O)c3ccccc32)cc1)c1ccc(Cl)cc1 (relative stereo) | 191 to 194
30 | COc1cccc(F)c1-c1ccc(NC(=O)OC(C)(C)C)c(N)c1 | 165 to 167
31 | CCOC(=O)C(=CNc1csnn1)C(=O)c1cc(F)c(F)cc1F | 104 to 106
32 | CC(C)CCCC(C)C1CC(O)C2=C3C(O)CC4CC(OC(=O)c5ccccc5)CCC4(C)C3CCC21C (stereo unspecified) | 178 to 179
33 | Cc1ccc(S(=O)(=O)Nc2nc(-c3cccc(-c4ccccc4)c3)cs2)cc1 | 153 to 155
34 | CCNS(=O)(=O)c1ccccc1C1CCCCC1 | 100 to 102
35 | Oc1ccccc1CNc1cncc(Br)c1 | 184
36 | COc1cccc(-c2ccc3c(c2)C(=O)N(Cc2cccnc2)C3=O)c1 | 115 to 117
